Assay results reported in article PMC6270012, “Inhibitory Evaluation of Sulfonamide Chalcones on β-Secretase and Acylcholinesterase” (Molecules, 2012).
Entries after “also recorded” stand apart in the source; their conditions may differ. Where two headings read alike, the source gives them in different places.

Columns and labels:
Type in all cases: biochemical
BACE1 [1] = target: T1, BACE1 (Homo sapiens, UniProt P56817); experiment: BACE1 FRET peptide cleavage assay; details: for Inhibition type: Lineweaver-Burk and Dixon plots
T1 construct: purchased RD System, Inc. (WI, USA)
T1 sequence (P56817 46-501): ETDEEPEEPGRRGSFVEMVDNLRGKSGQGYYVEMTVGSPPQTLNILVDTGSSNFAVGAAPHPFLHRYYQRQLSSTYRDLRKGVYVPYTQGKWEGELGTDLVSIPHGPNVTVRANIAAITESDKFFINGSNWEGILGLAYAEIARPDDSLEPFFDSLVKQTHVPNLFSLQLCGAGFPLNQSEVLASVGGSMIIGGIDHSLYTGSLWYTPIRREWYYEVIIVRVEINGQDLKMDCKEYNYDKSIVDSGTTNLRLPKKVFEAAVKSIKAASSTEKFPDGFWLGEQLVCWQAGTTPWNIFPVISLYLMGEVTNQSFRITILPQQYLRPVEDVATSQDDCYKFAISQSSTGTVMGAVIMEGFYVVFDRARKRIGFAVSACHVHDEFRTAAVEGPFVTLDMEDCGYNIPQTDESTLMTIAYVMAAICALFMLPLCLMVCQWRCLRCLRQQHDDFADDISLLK
Procedure: In this assay, BACE1-catalyzed proteolysis of a synthetic oligopeptide substituted with a fluorescent dye and a quencher leads to an increase in fluorescence by breaking the tether between the dye and the quencher. […] The assay was carried out according to the supplied manual with small modifications.
The assay was carried out according to the supplied manual with modifications. Briefly, a mixture of 10 μL of assay buffer (50 mM sodium acetate, pH 4.5), 10 μL of BACE1 (1.0 U/mL), 10 μL of the substrate (750 nM Rh-[…]-Quencher in 50 mM sodium acetate, pH 4.5), and 10 μL of sample dissolved in 50 mM ammonium bicarbonate buffer (pH 7.8) was incubated for 60 min at room temperature in the dark. The mixture was irradiated at 545 nm and the emission intensity at 590 nm was recorded. The inhibition ratio was obtained by the following equation: Inhibition (%) = [1 − {(S−S0)/(C−C0)}] × 100 where C was the fluorescence of the control (enzyme, buffer, and substrate) after 60 min of incubation, C0 was the fluorescence of control at zero time, S was the fluorescence of the tested samples (enzyme, sample solution, and substrate) after incubation, and S0 was the fluorescence of the tested samples at zero time. To allow for the quenching effect of the samples, the sample solution was added to the reaction mixture C, and any reduction in fluorescence by the sample was then investigated. All data are the mean of three experiments.

equine serum BChE = target: T2, equine serum BChE (Equus caballus, UniProt P81908); experiment: Cholinesterase inhibitory activity (Ellman), BChE; details: for Ki: read-out: Ki (inhibition constant) BChE
T2 construct: 2 μL of equine serum BChE (0.05 U/mL) solution; from tissue; host or cells: equine serum
T2 sequence (P81908 whole entry): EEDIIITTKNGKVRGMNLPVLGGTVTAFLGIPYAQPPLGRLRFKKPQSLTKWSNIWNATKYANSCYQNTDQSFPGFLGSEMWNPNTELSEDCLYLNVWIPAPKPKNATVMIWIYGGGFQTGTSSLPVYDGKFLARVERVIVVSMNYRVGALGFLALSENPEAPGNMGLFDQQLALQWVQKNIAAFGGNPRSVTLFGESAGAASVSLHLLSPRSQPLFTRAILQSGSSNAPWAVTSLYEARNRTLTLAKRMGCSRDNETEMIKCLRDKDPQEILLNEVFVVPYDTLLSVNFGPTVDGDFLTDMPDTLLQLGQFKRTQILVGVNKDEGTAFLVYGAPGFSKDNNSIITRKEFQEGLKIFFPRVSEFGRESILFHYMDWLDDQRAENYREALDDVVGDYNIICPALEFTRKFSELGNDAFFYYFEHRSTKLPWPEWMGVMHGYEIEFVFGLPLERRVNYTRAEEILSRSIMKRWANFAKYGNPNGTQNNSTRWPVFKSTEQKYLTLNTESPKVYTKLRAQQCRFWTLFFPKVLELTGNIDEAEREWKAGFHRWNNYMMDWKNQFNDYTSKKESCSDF
Procedure: (§1) Cholinesterase was assayed according to standard procedures by following the hydrolysis of acetylthiocholine iodide (AtCh) or butyrylthiocholine iodide (BtCh) by monitoring formation of 5-thio-2-nitrobenzoate from 5-5'-dithiobis(2-nitrobenzoic acid) spectrometrically at 412 nm. The reaction mixture contained 100 mM sodium phosphate buffer (pH 8.0), 20 μL of test sample solution and either 2 μL of human erythrocyte AChE (0.25 U/mL) or 2 μL of equine serum BChE (0.05 U/mL) solution, which were mixed and incubated for 10 min at room temperature. Assays were then initiated with the addition of 30 μL 5-5'-dithiobis(2-nitrobenzoic acid) (3.3 mM) and, respectively, 20 μL of AtCh (1 mM), and 7 μL of BtCh (1 mM). All assays were performed in triplicate. […] Kinetic parameters were determined using the Lineweaver-Burk double-reciprocal-plot method at increasing concentration of substrates and inhibitors.

human erythrocyte AChE = target: T3, human erythrocyte AChE (Homo sapiens, UniProt P22303); experiment: Cholinesterase inhibitory activity (Ellman), AChE; details: for IC50: read-out: IC50 erythrocytes AChE; for Ki: read-out: Ki (inhibition constant) AChE
T3 construct: 2 μL of human erythrocyte AChE (0.25 U/mL); from tissue; host or cells: human erythrocytes
T3 sequence (P22303 other isoform, or with tags, fused parts or gaps): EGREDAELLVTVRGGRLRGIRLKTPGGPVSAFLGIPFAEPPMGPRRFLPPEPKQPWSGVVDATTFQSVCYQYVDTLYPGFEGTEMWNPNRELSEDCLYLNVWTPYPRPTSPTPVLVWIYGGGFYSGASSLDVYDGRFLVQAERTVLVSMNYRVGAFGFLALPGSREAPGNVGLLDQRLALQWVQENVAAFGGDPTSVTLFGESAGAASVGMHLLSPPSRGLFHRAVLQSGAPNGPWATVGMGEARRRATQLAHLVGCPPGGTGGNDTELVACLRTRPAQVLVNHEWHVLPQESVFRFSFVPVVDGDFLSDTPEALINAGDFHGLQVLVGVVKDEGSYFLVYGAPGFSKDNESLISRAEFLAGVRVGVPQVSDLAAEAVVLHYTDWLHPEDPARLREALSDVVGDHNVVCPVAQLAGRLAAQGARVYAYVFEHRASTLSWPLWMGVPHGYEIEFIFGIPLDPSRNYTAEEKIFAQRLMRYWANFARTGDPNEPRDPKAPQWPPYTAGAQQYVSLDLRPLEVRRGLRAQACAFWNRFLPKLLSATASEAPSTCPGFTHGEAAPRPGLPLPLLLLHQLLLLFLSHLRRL
Procedure: as §1

BACE1 [2] = target: T1, BACE1; experiment: Slow and time-dependent inhibitory activity on BACE1 (progress curves); details: preincubation 0-60 min, progress curves 3,600 s
Procedure: To further investigate the inhibition mechanism, time dependence of BACE1inhibition by compound 5a was subsequently probed. The enzyme was preincubated with […] (between 0 and 60 min) and the residual enzyme activity was measured by calculating the initial velocity (Vi) of the hydrolysis (Figure 3B). Progress curves were continued to be run up for 3,600 s.
Slow and time-dependent assays and progress curves were carried out using 1 U/mL unit BACE1, and 10 μL substrate in 50 mM ammonium bicarbonate pH 7.8 at 37 °C. Enzyme activities were measured continuously for 3,600 s spectrophotometrically. To determine the kinetic parameters associated with time dependent inhibition of BACE1, progress curves for 3,600 s were obtained at one inhibitor concentration using fixed substrate concentrations. The data were analyzed using the nonlinear regression program [Sigma Plot (SPCC Inc., Chicago, IL, USA)].

[3] = BACE1, Dixon plot, read-out: Ki (inhibition constant)
[4] = BACE1 activity, mean of three experiments ± SD

Row | Structure (SMILES) | Ki (BACE1 [1]; [3]) | IC50 (BACE1 [1]; [4]) | IC50 (equine serum BChE) | Ki (equine serum BChE) | IC50 (human erythrocyte AChE) | Ki (human erythrocyte AChE) | further results
1 | Cc1ccc(S(=O)(=O)Nc2ccc(C(=O)/C=C/c3ccc(O)cc3)cc2)cc1 [Compound 4a, 4'-(4-Toluenesulfonamide)-4-hydroxychalcone] | 0.56 µM | 1.44 ± 0.2 µM | 47.4 µM | 25.3 µM | 56.1 µM | 40.4 µM | Inhibition type (BACE1 [1]; BACE1): mixed type
2 | O=c1c(O)c(-c2ccc(O)cc2O)oc2cc(O)cc(O)c12 [Morin, reference compound] |  |  |  |  |  |  | IC50 (BACE1 [1]; BACE1): 12.3 µM
3 | O=C(/C=C/c1ccc(O)c(O)c1)c1ccc(NS(=O)(=O)c2ccc(O)cc2)cc1 [Compound 5c, 4′-(4-Hydroxybenzenesulfonamide)-3,4-hydroxychalcone] | 0.56 µM | 0.62 ± 0.03 µM | 24.7 µM | 26.6 µM | 57.4 µM | 47.6 µM | 
4 | O=C(/C=C/c1ccc(O)cc1)c1ccc(NS(=O)(=O)c2ccc(O)cc2)cc1 [Compound 4d, 4′-(4-Hydroxybenzenesulfonamide)-4-hydroxychalcone] | 1.49 µM | 2.88 ± 0.5 µM |  |  |  |  | 
5 | O=C(/C=C/c1ccc(O)c(O)c1)c1ccc(NS(=O)(=O)c2ccc(F)cc2)cc1 [Compound 5f, 4′-(4-Fluorobenzenesulfonamide)-3,4-dihydroxychalcone] | 10.8 µM | 8.95 ± 1 µM |  |  |  |  | 
6 | Nc1ccc(S(=O)(=O)Nc2ccc(C(=O)/C=C/c3ccc(O)cc3)cc2)cc1 [Compound 4f, 4′-(4-Aminobenzenesulfonamide)-4-hydroxychalcone] | 4.19 µM | 5.58 ± 1.4 µM | 34.3 µM | 19 µM | 95.8 µM | 61.5 µM | 
7 | Cc1ccc(S(=O)(=O)Nc2ccc(C(=O)/C=C/c3ccc(O)c(O)c3)cc2)cc1 [Compound 5a, 4'-(4-Toluenesulfonamide)-3,4-dihydroxychalcone] |  | 0.21 ± 0.02 µM | 19.5 µM | 9.8 µM | 75.9 µM | 55.8 µM | Inhibition type (BACE1 [1]; BACE1): mixed inhibitor; Ki (BACE1 [1]; BACE1, read-out: Ki): 0.07 µM; Reversibility of inhibition (BACE1 [1]; BACE1, residual activity versus enzyme concentration): reversible inhibitor; Time dependence of inhibition (BACE1 [2]): slow binding inhibitor; also recorded: time-dependent
8 | CC(=O)Nc1ccc(C(=O)/C=C/c2ccc(O)cc2)cc1 [Compound 3, 4′-Acetamido-4-hydroxychalcone] |  | > 200 µM |  |  |  |  | BACE1 inhibition (BACE1 [1]; at concentrations as high as 200 μM): inactive
9 | O=C(/C=C/c1ccc(O)cc1)c1ccc(NS(=O)(=O)c2ccc(F)cc2)cc1 [Compound 4h, 4′-(4-Fluorobenzenesulfonamide)-4-hydroxychalcone] |  | 120 ± 3.2 µM |  |  |  |  | 
10 | Cc1ccc(S(=O)(=O)Nc2ccc(C(=O)/C=C/c3ccccc3)cc2)cc1 [Compound 4b, 4′-(4-Toluenesulfonamido)-chalcone] |  | 169 ± 2.4 µM |  |  |  |  | 
11 | Cc1ccc(S(=O)(=O)Nc2ccc(C(=O)/C=C/c3ccc(O)cc3O)cc2)cc1 [Compound 6, 4'-(4-Toluenesulfonamide)-2,4-dihydroxychalcone] | 1.89 µM | 3.6 ± 0.3 µM |  |  |  |  | 
12 | Nc1ccc(S(=O)(=O)Nc2ccc(C(=O)/C=C/c3ccc(O)c(O)c3)cc2)cc1 [Compound 5d, 4′-(4-Aminobenzenesulfonamide)-3,4-dihydroxychalcone] | 0.69 µM | 0.69 ± 0.04 µM |  |  |  |  | 
13 | Nc1ccc(C(=O)/C=C/c2ccc(O)c(O)c2)cc1 [Compound 2, 4′-Amino-3,4-dihydroxychalcone] | 10.5 µM | 17.7 ± 0.8 µM |  |  |  |  | 
14 | O=C(/C=C/c1ccc(O)c(O)c1)c1ccc(NS(=O)(=O)c2ccccc2)cc1 [Compound 5b, 4′-(Benzenesulfonamide)-3,4-dihydroxychalcone] | 3.78 µM | 4.59 ± 1.5 µM | 79 µM | 63.5 µM | 75.4 µM | 57.2 µM | 
15 | O=C(/C=C/c1ccc(O)c(O)c1)c1ccc(NS(=O)(=O)c2ccc([N+](=O)[O-])cc2)cc1 [Compound 5e, 4′-(4-Nitrobenzenesulfonamide)-3,4-dihydroxychalcone] | 92.4 µM | 101 ± 2.4 µM |  |  |  |  | 
16 | O=C(/C=C/c1ccc(O)cc1)c1ccc(NS(=O)(=O)c2ccccc2)cc1 [Compound 4c, 4′-(Benzenesulfonamide)-4-hydroxychalcone] | 5.83 µM | 6.28 ± 0.7 µM | 75 µM | 72.2 µM | 83.3 µM | 80.3 µM | 
17 | COc1ccc(S(=O)(=O)Nc2ccc(C(=O)/C=C/c3ccc(O)cc3)cc2)cc1 [Compound 4e, 4′-(4-Methoxybenzenesulfonamido)-4-hydroxychalcone] | 75.2 µM | 79.3 ± 2.3 µM |  |  |  |  | 
18 | Nc1ccc(C(=O)/C=C/c2ccc(O)cc2)cc1 [Compound 1, 4′-Amino-4-hydroxychalcone] | 43.8 µM | 48.2 ± 1.2 µM |  |  |  |  | 
19 | O=C(/C=C/c1ccc(O)cc1)c1ccc(NS(=O)(=O)c2ccc([N+](=O)[O-])cc2)cc1 [Compound 4g, 4′-(4-Nitrobenzenesulfonamide)-4-hydroxychalcone] | 94.8 µM | 107 ± 2.7 µM |  |  |  |  | 
